The results in this text go back to patent US20250084095A1, “Aminopyrimidine Derivatives as Cyclin-Dependent Kinase Inhibitors” (Accutar Biotechnology Inc., priority 2023, published 2025).

Like-named read-outs stand apart in the source and are kept apart here.

In experiment [1] the test system is Phospho-Rb (Ser807/811) in MCF7 cells. Briefly: Phospho-Rb expression inhibition in MCF7 cells quantified by in cell Western. In kind it is cell-based, human. The following applies: in cell Western. Summed up: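 MCF7 cells were seeded at 20,000/well, grown overnight, then treated 24 h at 37 °C with compound dilutions (0.1% DMSO from 1000× stocks). Fixed cells were co-stained for phospho-Rb Ser807/811 and total Rb. Near-infrared dual-channel in-cell Western imaging was the read-out.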

The subject of experiment [2] is 22RV1 cells. As to the kind of experiment: Cell growth inhibition of 22RV1 cells (CellTiter-Glo). It is filed as cell-based. The note with it: 5 days, CellTiter-Glo. An outline of the steps:
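22RV1 cells were plated in RPMI1640 with FBS (20% in one version, 10% in the other) and dosed next day at various concentrations from DMSO stocks. After 5 days at 37 °C, viability was measured by CellTiter-Glo luminescence.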

[3] abbreviates: Homo sapiens, MCF7, 24 h, 24 hours, read-out: MCF7 pRb IC50.
[4] abbreviates: Homo sapiens, 22Rv1, 120 h, read-out: 22RV1 Cell Growh GI50.

In the case of `Cc1c(C(C)(C)O)cnc2c(F)cc(-c3nc(N[C@@H]4C[C@H]5CO[C@H](O5)[C@H]4O)ncc3F)cc12` [Compound 256, (1S,3R,4S,5R)-3-((5-fluoro-4-(8-fluoro-3-(2-hydroxypropan-2-yl)-4-methylquinolin-6-yl)pyrimidin-2-yl)amino)-6,8-dioxabicyclo[3.2.1]octan-4-ol], in experiment [1] (setting [3]), the IC50 is at most 0.04 µM. Besides, in experiment [2] (setting [4]), the 50% growth inhibitory concentration (GI50) is at most 0.12 µM.

Take `Cc1c(C(C)(C)O)cnc2c(F)cc(-c3nc(N[C@@H]4C[C@H]5CO[C@H](O5)[C@H]4O)ncc3Cl)cc12` [Compound 257, (1S,3R,4S,5R)-3-((5-chloro-4-(8-fluoro-3-(2-hydroxypropan-2-yl)-4-methylquinolin-6-yl)pyrimidin-2-yl)amino)-6,8-dioxabicyclo[3.2.1]octan-4-ol]: in experiment [1] (setting [3]), the IC50 is at most 0.04 µM. In experiment [2] (setting [4]), the GI50 is at most 0.12 µM.

With `Cc1c(-c2nc(N[C@@H]3C[C@H]4CO[C@H](O4)[C@H]3O)ncc2Cl)sc2c(C(C)C)cnnc12` [Compound 259, (1S,3R,4S,5R)-3-((5-chloro-4-(4-isopropyl-7-methylthieno[3,2-c]pyridazin-6-yl)pyrimidin-2-yl)amino)-6,8-dioxabicyclo[3.2.1]octan-4-ol], the IC50 in experiment [1] (setting [3]) is at most 0.04 µM. Further, the 50% growth inhibitory concentration (GI50) in experiment [2] (setting [4]) was at most 0.12 µM.

`COC(=O)N1CC[C@@H](c2nc3c(F)cc(-c4nc(N[C@@H]5C[C@H]6CO[C@H](O6)[C@H]5O)ncc4F)cc3n2C(C)C)C1` [Compound 265, methyl (R)-3-(4-fluoro-6-(5-fluoro-2-(((1S,3R,4S,5R)-4-hydroxy-6,8-dioxabicyclo[3.2.1]octan-3-yl)amino)pyrimidin-4-yl)-1-isopropyl-1H-benzo[d]imidazol-2-yl)pyrrolidine-1-carboxylate]: the IC50 in experiment [1] (setting [3]) is 0.04 to 0.15 µM. For the same compound, the GI50 in experiment [2] (setting [4]) was 0.12 to 0.45 µM.

As for `CC(C)n1c([C@@H]2CCOC2)nc2c(F)cc(-c3nc(N[C@@H]4C[C@H]5CO[C@H](O5)[C@H]4O)ncc3Cl)cc21` [Compound 268, (1S,3R,4S,5R)-3-((5-chloro-4-(4-fluoro-1-isopropyl-2-((S)-tetrahydrofuran-3-yl)-1H-benzo[d]imidazol-6-yl)pyrimidin-2-yl)amino)-6,8-dioxabicyclo[3.2.1]octan-4-ol], in experiment [1] (setting [3]), the IC50 was at most 0.04 µM. Further, the GI50 in experiment [2] (setting [4]) was at most 0.12 µM.

As to `CC(C)n1c([C@H]2CCOC2)nc2c(F)cc(-c3nc(N[C@@H]4C[C@H]5CO[C@H](O5)[C@H]4O)ncc3F)cc21` [Compound 269, (1S,3R,4S,5R)-3-((5-fluoro-4-(4-fluoro-1-isopropyl-2-((R)-tetrahydrofuran-3-yl)-1H-benzo[d]imidazol-6-yl)pyrimidin-2-yl)amino)-6,8-dioxabicyclo[3.2.1]octan-4-ol], the IC50 in experiment [1] (setting [3]) was 0.04 to 0.15 µM. In addition, in experiment [2] (setting [4]), the GI50 lay in the range of 0.12 to 0.45 µM.

In the case of `CC(C)n1c([C@@H]2CCOC2)nc2c(F)cc(-c3nc(N[C@@H]4C[C@H]5CO[C@H](O5)[C@H]4O)ncc3F)cc21` [Compound 270, (1S,3R,4S,5R)-3-((5-fluoro-4-(4-fluoro-1-isopropyl-2-((S)-tetrahydrofuran-3-yl)-1H-benzo[d]imidazol-6-yl)pyrimidin-2-yl)amino)-6,8-dioxabicyclo[3.2.1]octan-4-ol], in experiment [1] (setting [3]), the IC50 is 0.04 to 0.15 µM. In addition, the GI50 in experiment [2] (setting [4]) was in the range of 0.12 to 0.45 µM.

As to `Cc1c(-c2nc(N[C@@H]3C[C@H]4CO[C@H](O4)[C@H]3O)ncc2Cl)sc2c(Cl)c(C(C)(C)O)cnc12` [Compound 275, (1S,3R,4S,5R)-3-((5-chloro-4-(7-chloro-6-(2-hydroxypropan-2-yl)-3-methylthieno[3,2-b]pyridin-2-yl)pyrimidin-2-yl)amino)-6,8-dioxabicyclo[3.2.1]octan-4-ol], the IC50 in experiment [1] (setting [3]) lay in the range of 0.04 to 0.15 µM. Further, in experiment [2] (setting [4]), the GI50 lay within 0.45 to 3 µM.

`Cc1c(-c2nc(N[C@@H]3C[C@H]4CO[C@H](O4)[C@H]3O)ncc2F)sc2c(Cl)c(C(C)(C)O)cnc12` [Compound 276, (1S,3R,4S,5R)-3-((4-(7-chloro-6-(2-hydroxypropan-2-yl)-3-methylthieno[3,2-b]pyridin-2-yl)-5-fluoropyrimidin-2-yl)amino)-6,8-dioxabicyclo[3.2.1]octan-4-ol]: the IC50 in experiment [1] (setting [3]) was at most 0.04 µM. For the same compound, the GI50 in experiment [2] (setting [4]) is 0.12 to 0.45 µM.

Consider `Cc1c(-c2nc(N[C@@H]3C[C@H]4CO[C@H](O4)[C@H]3O)ncc2Cl)sc2c(C)c(C(C)(C)O)cnc12` [Compound 277, (1S,3R,4S,5R)-3-((5-chloro-4-(6-(2-hydroxypropan-2-yl)-3,7-dimethylthieno[3,2-b]pyridin-2-yl)pyrimidin-2-yl)amino)-6,8-dioxabicyclo[3.2.1]octan-4-ol], for which the IC50 in experiment [1] (setting [3]) was at most 0.04 µM. Moreover, in experiment [2] (setting [4]), the GI50 fell in the range of 0.12 to 0.45 µM.

With `Cc1c(CN2CC[C@H](F)C2)n(C(C)C)c2cc(-c3nc(N[C@@H]4C[C@H]5CO[C@H](O5)[C@H]4O)ncc3F)ccc2c1=O` [Compound 293, 7-(5-fluoro-2-(((1S,3R,4S,5R)-4-hydroxy-6,8-dioxabicyclo[3.2.1]octan-3-yl)amino)pyrimidin-4-yl)-2-(((S)-3-fluoropyrrolidin-1-yl)methyl)-1-isopropyl-3-methylquinolin-4(1H)-one], the IC50 in experiment [1] (setting [3]) is at most 0.04 µM. Further, in experiment [2] (setting [4]), the GI50 is at most 0.12 µM.

Consider `CC(C)n1c(N2C(=O)OC[C@@H]2C)nc2c(F)cc(-c3nc(N[C@@H]4C[C@H]5CO[C@H](O5)[C@H]4O)ncc3Cl)cc21` [Compound 298, (S)-3-(6-(5-chloro-2-(((1S,3R,4S,5R)-4-hydroxy-6,8-dioxabicyclo[3.2.1]octan-3-yl)amino)pyrimidin-4-yl)-4-fluoro-1-isopropyl-1H-benzo[d]imidazol-2-yl)-4-methyloxazolidin-2-one], for which the IC50 in experiment [1] (setting [3]) was in the range of 0.15 to 1 µM. For the same compound, in experiment [2] (setting [4]), the concentration for 50% growth inhibition (GI50) fell in the range of 0.45 to 3 µM.

As for `CC(C)n1c(C(C)(C)O)nc2c(F)cc(-c3nc(N[C@@H]4CCOC[C@H]4O)ncc3Cl)cc21` [Reference Compound, PF-07220060, reference compound], the IC50 in experiment [1] (24 h incubation, read-out: MCF7, pRb (Ser807/811), IC50) was found to be 0.0652 µM. In experiment [2] (read-out: 22RVI, GI50), the GI50 came out at 0.153 µM.
